Measured values: the supplement of paper PMC10307832

How the values were obtained:
Assay in all cases: relative viability (nuclei count vs DMSO), 5 days (fraction); higher = more cells survive
A-427 = tested on: A-427
Summary of the method: (§1)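 For relative viability, nuclei counts in treated wells were divided by those in vehicle wells. Lung cancer cell lines had been pin-tool dosed in 1536-well plates the day after seeding and cultured for 5 days, then fixed and stained in one step (final 0.05% Triton X-100, 1% formaldehyde, 1 ug/ml Hoechst) and imaged at 4×. Doses were one drug alone or a fixed anchor-drug dose plus five library-drug doses (not always all listed) in √10 steps, and values are duplicate-plate medians.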

COR-L 105 = tested on: COR-L 105
Summary of the method: as §1

ChaGo-K-1 = tested on: ChaGo-K-1
Summary of the method: as §1

EKVX = tested on: EKVX
Summary of the method: as §1

EMC-BAC-2 = tested on: EMC-BAC-2
Summary of the method: as §1

H3255 = tested on: H3255
Summary of the method: as §1

HCC-366 = tested on: HCC-366
Summary of the method: as §1

LK-2 = tested on: LK-2
Summary of the method: as §1

LOU-NH91 = tested on: LOU-NH91
Summary of the method: as §1

NCI-H1666 = tested on: NCI-H1666
Summary of the method: as §1

NCI-H1734 = tested on: NCI-H1734
Summary of the method: as §1

NCI-H1755 = tested on: NCI-H1755
Summary of the method: as §1

NCI-H1975 = tested on: NCI-H1975
Summary of the method: as §1

NCI-H2170 = tested on: NCI-H2170
Summary of the method: as §1

NCI-H23 = tested on: NCI-H23
Summary of the method: as §1

NCI-H441 = tested on: NCI-H441
Summary of the method: as §1

NCI-H520 = tested on: NCI-H520
Summary of the method: as §1

NCI-H596 = tested on: NCI-H596
Summary of the method: as §1

PC-3 [JPC-3] = tested on: PC-3 [JPC-3]
Summary of the method: as §1

SK-MES-1 = tested on: SK-MES-1
Summary of the method: as §1

SW 900 = tested on: SW 900
Summary of the method: as §1

Compound: COc1cc2nccc(Oc3ccc(NC(=O)Nc4cc(C)on4)c(Cl)c3)c2cc1OC [Tivozanib] + CC(=O)Nc1cccc(-n2c(=O)n(C3CC3)c(=O)c3c(Nc4ccc(I)cc4F)n(C)c(=O)c(C)c32)c1 [Trametinib] (partner 0.02 µM)
- relative viability (A-427; first compound 0.005 µM): 0.696
- relative viability (A-427; first compound 0.01581 µM): 0.718
- relative viability (A-427; first compound 0.05 µM): 0.758
- relative viability (A-427; first compound 0.1581 µM): 0.67
- relative viability (A-427; first compound 0.5 µM): 0.686
- relative viability (COR-L 105; first compound 0.005 µM): 0.417
- relative viability (COR-L 105; first compound 0.01581 µM): 0.451
- relative viability (COR-L 105; first compound 0.05 µM): 0.454
- relative viability (COR-L 105; first compound 0.1581 µM): 0.482
- relative viability (COR-L 105; first compound 0.5 µM): 0.494
- relative viability (ChaGo-K-1; first compound 0.005 µM): 0.853
- relative viability (ChaGo-K-1; first compound 0.01581 µM): 0.89
- relative viability (ChaGo-K-1; first compound 0.05 µM): 0.875
- relative viability (ChaGo-K-1; first compound 0.1581 µM): 0.859
- relative viability (ChaGo-K-1; first compound 0.5 µM): 0.868
- relative viability (EKVX; first compound 0.005 µM): 0.32
- relative viability (EKVX; first compound 0.01581 µM): 0.467
- relative viability (EKVX; first compound 0.05 µM): 0.477
- relative viability (EKVX; first compound 0.1581 µM): 0.292
- relative viability (EKVX; first compound 0.5 µM): 0.345
- relative viability (EMC-BAC-2; first compound 0.005 µM): 0.886
- relative viability (EMC-BAC-2; first compound 0.01581 µM): 0.844
- relative viability (EMC-BAC-2; first compound 0.05 µM): 0.905
- relative viability (EMC-BAC-2; first compound 0.1581 µM): 0.827
- relative viability (EMC-BAC-2; first compound 0.5 µM): 0.952
- relative viability (H3255; first compound 0.005 µM): 0.531
- relative viability (H3255; first compound 0.01581 µM): 0.61
- relative viability (H3255; first compound 0.05 µM): 0.659
- relative viability (H3255; first compound 0.1581 µM): 0.608
- relative viability (H3255; first compound 0.5 µM): 0.59
- relative viability (HCC-366; first compound 0.005 µM): 0.363
- relative viability (HCC-366; first compound 0.01581 µM): 0.349
- relative viability (HCC-366; first compound 0.05 µM): 0.341
- relative viability (HCC-366; first compound 0.1581 µM): 0.323
- relative viability (HCC-366; first compound 0.5 µM): 0.426
- relative viability (LK-2; first compound 0.005 µM): 0.933
- relative viability (LK-2; first compound 0.01581 µM): 0.534
- relative viability (LK-2; first compound 0.05 µM): 0.622
- relative viability (LK-2; first compound 0.1581 µM): 0.85
- relative viability (LK-2; first compound 0.5 µM): 0.773
- relative viability (LOU-NH91; first compound 0.005 µM): 0.736
- relative viability (LOU-NH91; first compound 0.01581 µM): 0.805
- relative viability (LOU-NH91; first compound 0.05 µM): 0.784
- relative viability (LOU-NH91; first compound 0.1581 µM): 0.744
- relative viability (LOU-NH91; first compound 0.5 µM): 0.767
- relative viability (NCI-H1666; first compound 0.005 µM): 0.839
- relative viability (NCI-H1666; first compound 0.01581 µM): 0.78
- relative viability (NCI-H1666; first compound 0.05 µM): 0.977
- relative viability (NCI-H1666; first compound 0.1581 µM): 0.922
- relative viability (NCI-H1666; first compound 0.5 µM): 0.862
- relative viability (NCI-H1734; first compound 0.005 µM): 0.645
- relative viability (NCI-H1734; first compound 0.01581 µM): 0.642
- relative viability (NCI-H1734; first compound 0.05 µM): 0.666
- relative viability (NCI-H1734; first compound 0.1581 µM): 0.479
- relative viability (NCI-H1734; first compound 0.5 µM): 0.638
- relative viability (NCI-H1755; first compound 0.005 µM): 0.664
- relative viability (NCI-H1755; first compound 0.01581 µM): 0.75
- relative viability (NCI-H1755; first compound 0.05 µM): 0.804
- relative viability (NCI-H1755; first compound 0.1581 µM): 0.739
- relative viability (NCI-H1755; first compound 0.5 µM): 0.77
- relative viability (NCI-H1975; first compound 0.005 µM): 0.296
- relative viability (NCI-H1975; first compound 0.01581 µM): 0.39
- relative viability (NCI-H1975; first compound 0.05 µM): 0.442
- relative viability (NCI-H1975; first compound 0.1581 µM): 0.256
- relative viability (NCI-H1975; first compound 0.5 µM): 0.312
- relative viability (NCI-H2170; first compound 0.005 µM): 0.827
- relative viability (NCI-H2170; first compound 0.01581 µM): 0.92
- relative viability (NCI-H2170; first compound 0.05 µM): 0.893
- relative viability (NCI-H2170; first compound 0.5 µM): 0.983
- relative viability (NCI-H23; first compound 0.005 µM): 0.363
- relative viability (NCI-H23; first compound 0.01581 µM): 0.364
- relative viability (NCI-H23; first compound 0.05 µM): 0.383
- relative viability (NCI-H23; first compound 0.5 µM): 0.373
- relative viability (NCI-H441; first compound 0.005 µM): 0.405
- relative viability (NCI-H441; first compound 0.01581 µM): 0.489
- relative viability (NCI-H441; first compound 0.05 µM): 0.551
- relative viability (NCI-H441; first compound 0.1581 µM): 0.367
- relative viability (NCI-H441; first compound 0.5 µM): 0.433
- relative viability (NCI-H520; first compound 0.005 µM): 0.658
- relative viability (NCI-H520; first compound 0.01581 µM): 0.771
- relative viability (NCI-H520; first compound 0.05 µM): 0.612
- relative viability (NCI-H520; first compound 0.1581 µM): 0.475
- relative viability (NCI-H520; first compound 0.5 µM): 0.646
- relative viability (NCI-H596; first compound 0.005 µM): 0.653
- relative viability (NCI-H596; first compound 0.01581 µM): 0.834
- relative viability (NCI-H596; first compound 0.05 µM): 0.725
- relative viability (NCI-H596; first compound 0.5 µM): 0.931
- relative viability (PC-3 [JPC-3]; first compound 0.01581 µM): 0.686
- relative viability (PC-3 [JPC-3]; first compound 0.05 µM): 0.807
- relative viability (PC-3 [JPC-3]; first compound 0.1581 µM): 0.674
- relative viability (PC-3 [JPC-3]; first compound 0.5 µM): 0.811
- relative viability (SK-MES-1; first compound 0.005 µM): 0.542
- relative viability (SK-MES-1; first compound 0.01581 µM): 0.602
- relative viability (SK-MES-1; first compound 0.05 µM): 0.558
- relative viability (SK-MES-1; first compound 0.1581 µM): 0.542
- relative viability (SK-MES-1; first compound 0.5 µM): 0.7
- relative viability (SW 900; first compound 0.005 µM): 0.692
- relative viability (SW 900; first compound 0.01581 µM): 1.18
- relative viability (SW 900; first compound 0.05 µM): 1.04
- relative viability (SW 900; first compound 0.5 µM): 0.829
